What was measured:
Assay type in all cases: biochemical
[1] = molecular target: SIK3 (Homo sapiens, UniProt Q9Y2K2); assay: Enzymatic activity assay SIK3, RapidFire mass spectrometry (phosphorylation of CHK-peptide); details: RapidFire MS, inhibition of SIK3; read-out: SIK3 RF IC50
Outline: (§1)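 Compounds (12-point, 3-fold, generally 30 μM to 170 pM) were pre-incubated 30 min at ambient temperature with SIK1 (5 nM), SIK2 (0.5 nM) or SIK3 (1.5 nM) in HEPES pH 7.0/magnesium acetate buffer. CHK-peptide (10 μM solution) and ATP (100 μM solution) were then added for 45 min before formic acid quench.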

[2] = molecular target: SIK2 (Homo sapiens, UniProt Q9H0K1); assay: Enzymatic activity assay SIK2, RapidFire mass spectrometry (phosphorylation of CHK-peptide); details: RapidFire MS, inhibition of SIK2; read-out: SIK2 RF IC50
Sequence of SIK2 (Q9H0K1 whole entry): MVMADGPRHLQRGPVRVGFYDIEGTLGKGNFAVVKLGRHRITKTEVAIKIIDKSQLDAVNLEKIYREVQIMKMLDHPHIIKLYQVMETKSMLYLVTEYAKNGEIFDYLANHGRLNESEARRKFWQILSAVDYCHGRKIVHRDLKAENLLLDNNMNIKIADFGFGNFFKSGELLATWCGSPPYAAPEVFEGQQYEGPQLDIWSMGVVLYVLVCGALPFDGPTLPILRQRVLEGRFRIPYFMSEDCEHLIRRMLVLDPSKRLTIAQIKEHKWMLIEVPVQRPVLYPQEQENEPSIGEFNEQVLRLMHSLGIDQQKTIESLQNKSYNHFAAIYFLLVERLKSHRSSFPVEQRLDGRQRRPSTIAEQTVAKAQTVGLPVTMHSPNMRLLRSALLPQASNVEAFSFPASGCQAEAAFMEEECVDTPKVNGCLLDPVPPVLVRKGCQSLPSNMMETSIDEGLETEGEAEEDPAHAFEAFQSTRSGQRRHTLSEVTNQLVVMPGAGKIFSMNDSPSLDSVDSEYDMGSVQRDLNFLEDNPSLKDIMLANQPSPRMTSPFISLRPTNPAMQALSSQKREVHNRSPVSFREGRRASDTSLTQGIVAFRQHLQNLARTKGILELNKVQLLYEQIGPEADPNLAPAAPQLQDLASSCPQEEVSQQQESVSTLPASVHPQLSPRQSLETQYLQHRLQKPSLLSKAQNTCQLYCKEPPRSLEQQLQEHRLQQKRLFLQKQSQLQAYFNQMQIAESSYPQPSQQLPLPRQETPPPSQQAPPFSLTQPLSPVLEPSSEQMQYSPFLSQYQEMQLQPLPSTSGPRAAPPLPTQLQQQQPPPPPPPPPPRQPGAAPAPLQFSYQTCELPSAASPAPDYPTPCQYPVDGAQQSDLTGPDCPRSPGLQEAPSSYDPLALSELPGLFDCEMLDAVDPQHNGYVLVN
Outline: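 SIK2 (0.5 nM) in pH 7.0 HEPES buffer with 10 mM Mg acetate phosphorylates CHK-peptide (10 μM solution) with 100 μM ATP solution, 45 min ambient, then formic acid quench.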

[3] = molecular target: SIK1 (Homo sapiens, UniProt P57059); assay: Enzymatic activity assay SIK1, RapidFire mass spectrometry (phosphorylation of CHK-peptide); details: RapidFire MS, inhibition of SIK1; read-out: SIK1 RF IC50
Sequence of SIK1 (P57059 whole entry): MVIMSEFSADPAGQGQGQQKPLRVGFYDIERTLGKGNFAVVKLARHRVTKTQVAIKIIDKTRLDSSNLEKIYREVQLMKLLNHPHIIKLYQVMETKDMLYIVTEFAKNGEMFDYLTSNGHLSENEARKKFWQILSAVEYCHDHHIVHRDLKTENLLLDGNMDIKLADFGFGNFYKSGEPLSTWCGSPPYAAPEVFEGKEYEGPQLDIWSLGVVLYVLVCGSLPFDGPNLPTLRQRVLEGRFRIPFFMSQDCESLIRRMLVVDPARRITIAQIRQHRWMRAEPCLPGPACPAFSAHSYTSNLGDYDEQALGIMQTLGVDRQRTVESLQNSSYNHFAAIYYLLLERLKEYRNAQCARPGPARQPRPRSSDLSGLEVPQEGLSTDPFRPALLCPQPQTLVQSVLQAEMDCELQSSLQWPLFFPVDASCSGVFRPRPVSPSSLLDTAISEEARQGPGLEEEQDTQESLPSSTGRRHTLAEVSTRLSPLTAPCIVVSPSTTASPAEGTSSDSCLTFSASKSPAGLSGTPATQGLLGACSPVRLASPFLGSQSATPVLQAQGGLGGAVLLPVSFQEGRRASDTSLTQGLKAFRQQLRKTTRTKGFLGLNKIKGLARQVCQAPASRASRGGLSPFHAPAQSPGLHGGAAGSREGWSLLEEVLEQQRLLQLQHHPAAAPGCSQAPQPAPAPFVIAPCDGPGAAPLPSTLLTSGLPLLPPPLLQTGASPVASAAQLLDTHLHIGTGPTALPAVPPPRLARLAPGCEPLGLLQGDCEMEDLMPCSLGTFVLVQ
Outline: as §1

Sequence of SIK3 (Q9Y2K2 whole entry): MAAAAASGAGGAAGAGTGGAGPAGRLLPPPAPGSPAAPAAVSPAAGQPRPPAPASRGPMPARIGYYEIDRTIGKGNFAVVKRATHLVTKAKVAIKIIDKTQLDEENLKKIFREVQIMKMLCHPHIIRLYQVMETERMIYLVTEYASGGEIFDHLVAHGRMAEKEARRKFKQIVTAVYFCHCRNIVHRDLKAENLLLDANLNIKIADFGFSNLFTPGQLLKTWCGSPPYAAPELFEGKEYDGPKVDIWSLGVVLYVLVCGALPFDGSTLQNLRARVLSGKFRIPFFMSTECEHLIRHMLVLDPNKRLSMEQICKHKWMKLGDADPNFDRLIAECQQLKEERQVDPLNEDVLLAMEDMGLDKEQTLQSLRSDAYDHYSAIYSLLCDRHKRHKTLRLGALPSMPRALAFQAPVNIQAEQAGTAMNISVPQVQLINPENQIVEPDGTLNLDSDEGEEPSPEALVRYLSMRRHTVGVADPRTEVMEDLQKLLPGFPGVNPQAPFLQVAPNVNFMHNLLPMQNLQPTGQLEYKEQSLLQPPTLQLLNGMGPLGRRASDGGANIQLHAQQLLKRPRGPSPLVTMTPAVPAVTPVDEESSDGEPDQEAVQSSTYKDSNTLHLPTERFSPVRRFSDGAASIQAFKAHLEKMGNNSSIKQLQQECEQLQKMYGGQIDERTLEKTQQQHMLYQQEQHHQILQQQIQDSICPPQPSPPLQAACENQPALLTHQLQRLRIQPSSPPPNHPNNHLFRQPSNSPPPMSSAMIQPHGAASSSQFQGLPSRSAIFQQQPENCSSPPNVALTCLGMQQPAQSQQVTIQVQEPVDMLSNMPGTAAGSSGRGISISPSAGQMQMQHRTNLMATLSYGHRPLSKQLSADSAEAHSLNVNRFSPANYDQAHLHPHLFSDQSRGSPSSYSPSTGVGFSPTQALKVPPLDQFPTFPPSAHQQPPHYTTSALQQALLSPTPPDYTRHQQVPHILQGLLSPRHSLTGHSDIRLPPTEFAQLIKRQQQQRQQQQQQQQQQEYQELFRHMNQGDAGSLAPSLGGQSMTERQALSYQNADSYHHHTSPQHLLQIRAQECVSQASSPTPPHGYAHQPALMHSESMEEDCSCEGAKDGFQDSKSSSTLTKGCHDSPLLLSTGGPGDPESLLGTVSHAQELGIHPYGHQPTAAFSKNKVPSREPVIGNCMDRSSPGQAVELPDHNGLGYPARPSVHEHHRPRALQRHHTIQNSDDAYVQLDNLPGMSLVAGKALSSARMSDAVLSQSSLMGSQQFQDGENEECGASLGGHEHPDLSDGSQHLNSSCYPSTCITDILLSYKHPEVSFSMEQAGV

IC50 [1] | IC50 [2] | IC50 [3] | SMILES
26.7 nM | 8.7 nM | 12 nM | Cc1ccc(Nc2cc3c(cc2F)ncn3-c2ccc(C(C)O)c(-n3nc(C(F)F)cc3C)n2)c(F)c1F (stereo not drawn) [Example 362, 1-[6-[6-(2,3-difluoro-4-methyl-anilino)-5-fluoro-benzimidazol-1-yl]-2-[3-(difluoromethyl)-5-methyl-pyrazol-1-yl]-3-pyridyl]ethanol]
2060 nM | 1040 nM | 1300 nM | COc1cc2ncn(-c3ccc([C@@H](C)O)c(-c4ccn(C)c(=O)c4)n3)c2cc1OC [Example 42, (R)-6-(5,6-Dimethoxy-1H-benzo[d]imidazol-1-yl)-3-(1-hydroxyethyl)-1′-methyl-[2,4′-bipyridin]-2′(1′H)-one]
60.2 nM | 48.9 nM | 17200 nM | Cc1cc(C(=O)N(C)C)c(Nc2cc3ncn(-c4ccc([C@H](C)O)c(-n5nc(C(F)F)cc5C)n4)c3cc2F)nn1 [Example 345, 3-[[1-[6-[3-(difluoromethyl)-5-methyl-pyrazol-1-yl]-5-[(1~{S})-1-hydroxyethyl]-2-pyridyl]-6-fluoro-benzimidazol-5-yl]amino]-~{N},~{N},6-trimethyl-pyridazine-4-carboxamide]
12.4 nM | 16.6 nM | 81 nM | Cc1cc(C#N)nn1-c1nc(-n2cnc3cc(NC(=O)C4(F)CC4)ccc32)ccc1C(C)O (stereo not drawn) [Example 380, N-[1-[6-(3-cyano-5-methyl-pyrazol-1-yl)-5-(1-hydroxyethyl)-2-pyridyl]benzimidazol-5-yl]-1-fluoro-cyclopropanecarboxamide]
80.4 nM | 46.8 nM | 5620 nM | Cc1ccc(Nc2ccc3c(c2)ncn3-c2ccc([C@H](C)O)c(-c3cn(CC(F)(F)F)nc3C)n2)nn1 [Example 252, (1S)-1-[6-[5-[(6-Methylpyridazin-3-yl)amino]benzimidazol-1-yl]-2-[3-methyl-1-(2,2,2-trifluoroethyl)pyrazol-4-yl]-3-pyridyl]ethanol]
1.4 nM | 1.1 nM | 138 nM | Cc1ccc(Nc2ccc3c(c2)ncn3-c2ccc(C(C)O)c(-c3cn(CC(F)F)nc3C)n2)nn1 (stereo not drawn) [Example 313, 1-[2-[1-(2,2-difluoroethyl)-3-methyl-pyrazol-4-yl]-6-[5-[(6-methylpyridazin-3-yl)amino]benzimidazol-1-yl]-3-pyridyl]ethanol]
5.8 nM | 13.2 nM | 1600 nM | Cc1ccc(Nc2ccc3c(c2)ncn3-c2ccc([C@@H](C)O)c(-n3nc(C(F)F)cc3C(F)F)n2)nn1 [Example 288, (1R)-1-[2-[3,5-bis(difluoromethyl)pyrazol-1-yl]-6-[5-[(6-methylpyridazin-3-yl)amino]benzimidazol-1-yl]-3-pyridyl]ethanol]
7 nM | 6.7 nM | 2120 nM | Cc1ccc(Nc2cc3ncn(-c4ccc(CO)c(-n5nc(C(F)F)cc5C)n4)c3cc2F)nn1 [Example 319, [2-[3-(difluoromethyl)-5-methyl-pyrazol-1-yl]-6-[6-fluoro-5-[(6-methylpyridazin-3-yl)amino]benzimidazol-1-yl]-3-pyridyl]methanol]
1.2 nM | 1.2 nM | 69 nM | Cc1ccc(Nc2ccc3c(c2)ncn3-c2ccc(C(C)O)c(-c3ccn(CC(F)(F)F)c(=O)c3F)n2)nn1 (stereo not drawn) [Example 386, 3-fluoro-4-[3-(1-hydroxyethyl)-6-[5-[(6-methylpyridazin-3-yl)amino]benzimidazol-1-yl]-2-pyridyl]-1-(2,2,2-trifluoroethyl)pyridin-2-one]
339 nM | 215 nM | 589 nM | Cc1cc(C#N)nn1-c1nc(-n2cnc3cc(N4CCN(C5COC5)CC4)c(Br)cc32)ccc1C(C)O (stereo not drawn) [Example 130, 1-[6-[6-Bromo-5-[4-(oxetan-3-yl)piperazin-1-yl]benzimidazol-1-yl]-3-(1-hydroxyethyl)-2-pyridyl]-5-methyl-pyrazole-3-carbonitrile]
0.3 nM | 0.3 nM | 3 nM | Cc1ccc(Nc2ccc3c(c2)ncn3-c2ccc(C(C)O)c(-n3nc(C#N)c4c3CCNC4)n2)nn1 (stereo not drawn) [Example 205, 1-[3-(1-Hydroxyethyl)-6-[5-[(6-methylpyridazin-3-yl)amino]benzimidazol-1-yl]-2-pyridyl]-4,5,6,7-tetrahydropyrazolo[4,3-c]pyridine-3-carbonitrile]
19.8 nM | 5 nM | 12 nM | COc1cc2ncn(-c3ccc(C(C)O)c(-c4cccc(Cl)c4F)n3)c2cc1OC (stereo not drawn) [Example 20, 1-(2-(3-Chloro-2-fluorophenyl)-6-(5,6-dimethoxy-1H-benzo[d]imidazol-1-yl)pyridin-3-yl)ethan-1-ol]
5.5 nM | 25.2 nM | 750 nM | Cc1ccc(Nc2ccc3c(c2)ncn3-c2ccc(C(C)O)c(OC3CNCC3(F)F)n2)nn1 (stereo not drawn) [Example 393, 1-[2-(4,4-difluoropyrrolidin-3-yl)oxy-6-[5-[(6-methylpyridazin-3-yl)amino]benzimidazol-1-yl]-3-pyridyl]ethanol]
0.5 nM | 0.5 nM | 41 nM | Cc1ccc(Nc2ccc3c(c2)ncn3-c2ccc(C(C)O)c(-n3nc(OC(F)F)cc3C(F)F)n2)nn1 (stereo not drawn) [Example 404, 1-[2-[3-(difluoromethoxy)-5-(difluoromethyl)pyrazol-1-yl]-6-[5-[(6-methylpyridazin-3-yl)amino]benzimidazol-1-yl]-3-pyridyl]ethanol]
36.5 nM | 66.1 nM | 127 nM | Cc1cc(C#N)nn1-c1nc(-n2cnc3ccc(NC(=O)C4CC4)cc32)ccc1C(C)O (stereo not drawn) [Example 328, N-[3-[6-(3-cyano-5-methyl-pyrazol-1-yl)-5-(1-hydroxyethyl)-2-pyridyl]benzimidazol-5-yl]cyclopropanecarboxamide]
4.2 nM | 6.8 nM | 2200 nM | Cc1cc(C(=O)N(C)C)c(Nc2ccc3c(c2)ncn3-c2ccc(C(C)O)c(-n3nc(C#N)cc3C)n2)nn1 (stereo not drawn) [Example 219, 3-[[1-[6-(3-Cyano-5-methyl-pyrazol-1-yl)-5-(1-hydroxyethyl)-2-pyridyl]benzimidazol-5-yl]amino]-N,N,6-trimethyl-pyridazine-4-carboxamide]
1880 nM | 4710 nM | 13600 nM | Cc1ccc(Nc2ccc3c(c2)ncn3-c2ccc(C(C)O)c(-n3ncc(C#N)c3C)n2)nn1 (stereo not drawn) [Example 151, 1-[3-(1-Hydroxyethyl)-6-[5-[(6-methylpyridazin-3-yl)amino]benzimidazol-1-yl]-2-pyridyl]-5-methyl-pyrazole-4-carbonitrile]
1.9 nM | 2.1 nM | 167 nM | Cc1ccc(Nc2ccc3c(c2)ncn3-c2ccc(C(C)O)c(-c3cnn(CC(C)(F)F)c3C)n2)nn1 (stereo not drawn) [Example 284, 1-[2-[1-(2,2-difluoropropyl)-5-methyl-pyrazol-4-yl]-6-[5-[(6-methylpyridazin-3-yl)amino]benzimidazol-1-yl]-3-pyridyl]ethanol]
1290 nM | 345 nM | 426 nM | CCOc1cc(C)n(-c2nc(-n3cnc4ccc(Nc5ccc(C)nn5)cc43)ccc2C(C)O)n1 (stereo not drawn) [Example 134, 1-[2-(3-Ethoxy-5-methyl-pyrazol-1-yl)-6-[6-[(6-methylpyridazin-3-yl)amino]benzimidazol-1-yl]-3-pyridyl]ethanol]
7.8 nM | 67.1 nM | 1670 nM | Cc1ccc(Nc2ccc3c(c2)ncn3-c2ccc(C(C)O)c(N3CC4CC(F)(F)C4C3)n2)nn1 (stereo not drawn) [Example 326, 1-[2-(6,6-difluoro-3-azabicyclo[3.2.0]heptan-3-yl)-6-[5-[(6-methylpyridazin-3-yl)amino]benzimidazol-1-yl]-3-pyridyl]ethanol]
2.2 nM | 1.4 nM | 5 nM | Cc1cc(C#N)nn1-c1nc(-n2cnc3cc(Nc4cnn(C5COC5)c4)ccc32)ccc1C(C)O (stereo not drawn) [Example 71, 1-[3-(1-Hydroxyethyl)-6-[5-[[1-(oxetan-3-yl)pyrazol-4-yl]amino]benzimidazol-1-yl]-2-pyridyl]-5-methyl-pyrazole-3-carbonitrile]
29 nM | 151 nM | 12100 nM | Cc1ccc(Nc2ccc3c(c2)ncn3-c2ccc(C(C)O)c(-c3cc(F)cnc3Cl)n2)nn1 (stereo not drawn) [Example 174, 1-[2-(2-Chloro-5-fluoro-3-pyridyl)-6-[5-[(6-methylpyridazin-3-yl)amino]benzimidazol-1-yl]-3-pyridyl]ethanol; formic acid]
67.4 nM | 72.5 nM | 6410 nM | Cc1ccc(Nc2ccc3c(c2)ncn3-c2nc(-n3nc(C#N)cc3C)c(C(C)O)cc2Cl)nn1 (stereo not drawn) [Example 245, 1-[5-Chloro-3-(1-hydroxyethyl)-6-[5-[(6-methylpyridazin-3-yl)amino]benzimidazol-1-yl]-2-pyridyl]-5-methyl-pyrazole-3-carbonitrile; formic acid]
1.2 nM | 10.3 nM | 663 nM | Cc1ccc(Nc2ccc3c(c2)ncn3-c2ccc(C(O)C(F)(F)F)c(-n3nc(C#N)cc3C)n2)nn1 (stereo not drawn) [Example 148, 5-Methyl-1-[6-[5-[(6-methylpyridazin-3-yl)amino]benzimidazol-1-yl]-3-(2,2,2-trifluoro-1-hydroxy-ethyl)-2-pyridyl]pyrazole-3-carbonitrile]
34.4 nM | 141 nM | 9950 nM | Cc1ccc(Nc2ccc3c(c2)ncn3-c2ccc(C(C)O)c(-c3ccoc3C#N)n2)nn1 (stereo not drawn) [Example 204, 3-[3-(1-Hydroxyethyl)-6-[5-[(6-methylpyridazin-3-yl)amino]benzimidazol-1-yl]-2-pyridyl]furan-2-carbonitrile]

Reference: US20240383875A1, “Benzimidazole Pyridine Derivatives” (Hoffmann-La Roche Inc., priority 2022, published 2024)
